According to ChEMBL document CHEMBL4673396, “Structural Basis for Targeting the Folded P-Loop Conformation of c-MET” (ACS Med Chem Lett, 2021):

Assay: Lipophilicity, logD of the compound in octanol and water at pH 7.4 by shake-flask method
Format: physicochemical

SMILES | logD
O=C1NCc2c(-c3cnc4[nH]cc(Cc5ccccc5)c4c3)c[nH]c21 | 4
Fc1cccc(Cc2c[nH]c3ncc(-c4cnn(C5CCNCC5)c4)cc23)c1 | 2.4
c1ccc(Cc2c[nH]c3ncc(-c4cnn(C5CCNCC5)c4)cc23)cc1 | 2.31
Fc1ccc(Cc2c[nH]c3ncc(-c4cnn(C5CCNCC5)c4)cc23)cc1 | 2.4
Fc1ccccc1Cc1c[nH]c2ncc(-c3cnn(C4CCNCC4)c3)cc12 | 2.5
